This note sets out measurements from ChEMBL document CHEMBL1201862, “PubChem BioAssay data set” (2004).

For one experiment, the system named is Streptococcus. Description: GAS UMAA2166 growth inhibition – luminescence, BacTiterGlo, counter-screen for streptokinase expression inhibitor project, dose response (AID 1915).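 Note: potency for reduction of bacterial viability or growth.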 In kind it is functional, organism-based. A general note: Counterscreens check selectivity or assay interference.
Experiment [1] relates to Streptococcus sp. 'group A'. Kind of experiment: Streptococcus pyogenes SK(-)GAS viability under kanamycin – luminescence, BacTiterGlo, confirmation, counter-screen for streptokinase expression inhibitor project, dose response (AID 1900). In kind it is functional, organism-based.
The target in another experiment is T1, Streptokinase A (Streptococcus pyogenes serotype M1, UniProt P10520).
T1 sequence (P10520 whole entry): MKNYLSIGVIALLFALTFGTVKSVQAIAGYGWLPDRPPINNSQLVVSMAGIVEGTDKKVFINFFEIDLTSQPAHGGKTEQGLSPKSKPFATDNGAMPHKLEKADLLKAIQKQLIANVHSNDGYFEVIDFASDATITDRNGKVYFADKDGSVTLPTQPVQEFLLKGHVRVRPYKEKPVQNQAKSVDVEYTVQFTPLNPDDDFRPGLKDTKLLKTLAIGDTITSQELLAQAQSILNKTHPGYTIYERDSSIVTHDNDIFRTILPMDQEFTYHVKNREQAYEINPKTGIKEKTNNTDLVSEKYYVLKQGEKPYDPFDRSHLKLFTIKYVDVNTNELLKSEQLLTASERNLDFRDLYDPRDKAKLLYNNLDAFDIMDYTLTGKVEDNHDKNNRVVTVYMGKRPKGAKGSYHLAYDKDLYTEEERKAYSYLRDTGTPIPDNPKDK
Description: viability-normalized secreted streptokinase activity reduction – plasminogen activation absorbance, OD405, dose response (AID 1914).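 Note: secreted streptokinase activity via plasminogen activation per viability signal from cell pellet.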 In kind it is functional, Streptococcus pyogenes M1 GAS.

In experiment [2] the target is T2, Heat shock factor protein 1 (Mus musculus, UniProt P38532).
T2 sequence (P38532 whole entry): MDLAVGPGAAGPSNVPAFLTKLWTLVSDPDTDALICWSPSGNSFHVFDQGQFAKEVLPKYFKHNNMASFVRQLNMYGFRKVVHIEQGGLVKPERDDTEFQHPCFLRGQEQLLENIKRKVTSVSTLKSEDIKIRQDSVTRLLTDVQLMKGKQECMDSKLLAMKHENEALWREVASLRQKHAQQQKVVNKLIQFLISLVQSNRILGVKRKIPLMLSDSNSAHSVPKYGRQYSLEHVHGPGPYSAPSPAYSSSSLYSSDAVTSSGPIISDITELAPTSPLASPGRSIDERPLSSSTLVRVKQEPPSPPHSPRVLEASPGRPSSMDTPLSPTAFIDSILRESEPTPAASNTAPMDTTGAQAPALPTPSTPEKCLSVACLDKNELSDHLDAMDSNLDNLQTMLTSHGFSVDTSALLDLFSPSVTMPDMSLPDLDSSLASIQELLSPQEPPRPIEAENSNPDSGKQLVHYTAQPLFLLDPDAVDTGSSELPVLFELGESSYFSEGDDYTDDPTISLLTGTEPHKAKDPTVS
Kind of experiment: decrease of HSF1-responsive luciferase luminescence – cell-based, NIH3T3, dose retest, confirmation (AID 2382).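 Note: NIH3T3 fibroblasts with HSF1-driven luciferase reporter stressed by proteasome inhibitor MG132; luminescence from HSF1-driven luciferase expression after 8 hours of MG132 stress.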 In kind it is functional.

Activity calls are given as the source filed them. Cut-off read from the data, not from the text of the source: actives have a measured EC50 and inactives only a lower limit. Where only a bound is given, the exact number is not on record here.

By EC50 is commonly meant the concentration needed to bring the measured effect to its halfway point. Take `COc1cc(-c2ccc(NC(=O)NC3CC3)c(OC)c2)ccc1NC(=O)NC1CC1`: the EC50 is 135 µM (active) with Streptococcus, 117 µM (active) in experiment [1] and > 150 µM (not active) on Streptokinase A.

For `CCOC(=O)c1cc(-c2ccc3c(c2)OCCO3)nc2c1c(C)nn2CCC#N`, the EC50 in the experiment with Streptococcus was 17.6 µM (active); in experiment [1], 4.49 µM (active); at Streptokinase A, > 150 µM (not active).

`CCCCNc1c(-c2ccc(OC)c(SC3CCCCC3)c2)nc2cnccn12`: the EC50 was 8.16 µM (active) in the experiment on Streptococcus, 4.63 µM (active) in experiment [1] and 6.56 µM (active) at Streptokinase A.

On to `O=c1cc2c(nn1Cc1ccc(Cl)cc1Cl)-c1ccccc1CC2`, for which the EC50 was 17.6 µM (active) with Streptococcus, 7.36 µM (active) in experiment [1] and 11 µM (active) on Streptokinase A.

With `CCCCCCCCCCCCN1C(=O)CSC1c1cccnc1` (configuration not stated), the concentration giving a half-maximal response (EC50) with Streptococcus was > 150 µM (not active); in experiment [1] it was 6.74 µM (active); at Streptokinase A it was 20.4 µM (active).

As to `Oc1cc(O)nc(SCc2ccc(Cl)cc2)n1`, the concentration giving a half-maximal response (EC50) with Streptococcus was > 150 µM (not active); in experiment [1], 81.5 µM (active); on Streptokinase A, > 150 µM (not active).

`COc1cccc(CNCC(O)(c2ccc(Cl)cc2)c2ccc(Cl)cc2)c1`: the EC50 is 18.2 µM (active) in the experiment with Streptococcus, 3.15 µM (active) in experiment [1] and 18.9 µM (active) on Streptokinase A.

On to `CC(C)C[C@@H](CC#N)N1CCN(Cc2ccccc2)CCC1=O`, for which the EC50 in experiment [2] was > 195 µM (not active).

Take `COc1ccc(S(=O)(=O)NCC(c2ccc(F)cc2)N2CCN(C)CC2)cc1` (configuration not stated): the EC50 (with Streptococcus; in experiment [1]; on Streptokinase A) was > 150 µM (not active) throughout.

`CCOC(=O)C1CCN(C(=O)CC(C)c2ccccc2)CC1` (configuration not stated): in experiment [2], the EC50 is 13.5 µM (active).

For the compound `CCOc1ccc(NC(=O)CCCNC(=O)Cn2cnc3sc(C)c(C)c3c2=O)cc1`, the half-maximal effective concentration (EC50) in experiment [2] is on record as > 195 µM (not active).

`Cc1ccc(S(=O)(=O)N2CCC(C(=O)NNC(=O)c3ccncc3)CC2)cc1`: in experiment [2], the EC50 is listed as > 195 µM (not active).

Turning to `COC(=O)c1ccc(CNC(=O)C(NC(=O)c2ccco2)C(C)C)cc1` (configuration not stated), the EC50 in experiment [2] is on record as > 195 µM (not active).

Consider `Cc1cc(NC(=S)N(Cc2ccc(Cl)cc2)Cc2ccc(C(=O)O)cc2)ccc1Cl`, for which the half-maximal effective concentration (EC50) was > 150 µM (not active) in the experiment on Streptococcus, 10.1 µM (active) in experiment [1] and > 150 µM (not active) on Streptokinase A.
